Test results as given in ChEMBL document CHEMBL4813909, “Heterocyclic Diamidine DNA Ligands as HOXA9 Transcription Factor Inhibitors: Design, Molecular Evaluation, and Cellular Consequences in a HOXA9-Dependant Leukemia Cell Model” (J Med Chem, 2019).
The source made the active and inactive calls. The rule behind the calls is not given here.

Key:
[1] = test system: HOXA9 DNA binding site; conditions: dose 1.0 µM
[2] = target: HOXA9 DNA binding site; experiment: Binding affinity to hairpin DNA Hoxa9-binding site 5'-biotin-CCATGATTTACCTCTGTAAATCATGG (unknown origin) by surface plasmon resonance; type: nucleic-acid assay
[3] = test system: HOXA9 DNA binding site; conditions: dose 0.5 µM
[4] = test system: HOXA9 DNA binding site [UNDEFINED MUTATION]
[5] = Induction of cell death in mouse MigA9 cells harboring mouse Hoxa9 gene assessed as propidium iodide-positive cells at 20 uM incubated for 24 hrs by propidium iodide staining based flow cytometry (reference value: 9.06 +/- 0.53%); type: functional; conditions: dose 20 µM; time 24 hrs
[6] = test system: K562; experiment: Anticlonogenic activity in human K562 cells assessed as K562 number at 2.5 uM incubated for 10 days by Methocult-colony forming cell assay relative to control; type: functional; conditions: time 10 day
[7] = Induction of cell cycle arrest in mouse MigA9 cells harboring mouse Hoxa9 gene assessed as accumulation at sub-G1 phase at 20 uM incubated for 48 hrs by propidium iodide staining based flow cytometry (reference value: 0.76 +/- 0.1%); type: functional
[8] = Induction of cell death in mouse MigA9 cells harboring mouse Hoxa9 gene assessed as propidium iodide-positive cells at 15 uM incubated for 24 hrs by propidium iodide staining based flow cytometry (reference value: 9.06 +/- 0.53%); type: functional; conditions: dose 15 µM; time 24 hrs
[9] = Cytotoxicity against mouse MigA9 cells harboring mouse Hoxa9 gene incubated for 72 hrs by MTS assay; type: functional, cell-based; conditions: MigA9, 72 h
[10] = test system: HOXA9 DNA binding site [UNDEFINED MUTATION]; remark: listed apart in the source
[11] = test system: MigA9; experiment: Upregulation of timp2 gene in mouse MigA9 cells by ingenuity pathway analysis; type: functional, cell-based
[12] = Stability in mouse MigA9 cells assessed as visibility of intrinsic fluorescence measured after 10 days by fluorescence microscopy; type: ADME, cell-based; conditions: miga9, 240 h, time 10 day
[13] = target: Homeobox protein Hox-A9 (Mus musculus) (UniProt P09631); experiment: Inhibition of HOXA9 in mouse MigA9 cells assessed as induction of gabriely-mir21-targets gene by gene set enrichment analysis; type: cell-based
Chain of Homeobox protein Hox-A9 (Mus musculus) (P09631 whole entry, the tested form may be a part): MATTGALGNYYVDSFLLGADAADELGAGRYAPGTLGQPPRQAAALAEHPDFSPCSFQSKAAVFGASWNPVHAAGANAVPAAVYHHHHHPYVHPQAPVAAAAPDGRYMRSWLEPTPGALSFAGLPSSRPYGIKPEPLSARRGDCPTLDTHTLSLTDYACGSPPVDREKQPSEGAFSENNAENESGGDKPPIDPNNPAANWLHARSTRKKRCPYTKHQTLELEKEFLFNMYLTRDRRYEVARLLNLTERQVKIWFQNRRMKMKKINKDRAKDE

[14] = target: Homeobox protein Hox-A9 (Mus musculus) (UniProt P09631); experiment: Inhibition of HOXA9 in mouse MigA9 cells assessed as induction of takeda- targets-of-nup98- hoxa9-fusion-8d-dn genes by gene set enrichment analysis; type: cell-based
[15] = test system: MigA9; experiment: Induction of TAC4 gene in mouse MigA9 cells by ingenuity pathway analysis; type: functional, cell-based
[16] = test system: MigA9; experiment: Upregulation of CEACAM1 gene in mouse MigA9 cells by ingenuity pathway analysis; type: functional, cell-based
[17] = test system: MigA9; experiment: Upregulation of tac4 gene in mouse MigA9 cells by ingenuity pathway analysis; type: functional, cell-based
[18] = test system: MigA9; experiment: Upregulation of rgs10 gene in mouse MigA9 cells by ingenuity pathway analysis; type: functional, cell-based
[19] = test system: MigA9; experiment: Upregulation of DNMT3A gene in mouse MigA9 cells by ingenuity pathway analysis; type: functional, cell-based
[20] = test system: MigA9; experiment: Downregulation of onecut1 gene in mouse MigA9 cells by ingenuity pathway analysis; type: functional, cell-based
[21] = test system: MigA9; experiment: Induction of TP53 gene in mouse MigA9 cells by ingenuity pathway analysis; type: functional, cell-based
[22] = test system: MigA9; experiment: Downregulation of ARHGEF1 gene in mouse MigA9 cells by ingenuity pathway analysis; type: functional, cell-based
[23] = test system: MigA9; experiment: Downregulation of pim1 gene in mouse MigA9 cells by ingenuity pathway analysis; type: functional, cell-based
[24] = target: Homeobox protein Hox-A9 (Mus musculus) (UniProt P09631); experiment: Inhibition of HOXA9 in mouse MigA9 cells assessed as downregulation of wang-immortalised-by-hoxa9-and meis1-up genes by gene set enrichment analysis; type: cell-based
[25] = Drug localization in nucleus of human HT-29 cells at 5 uM incubated for 16 hrs by DiOC6/propidium iodide staining based by fluorescence microscopy; type: ADME, subcellular; conditions: ht-29, 16 h
[26] = test system: MigA9; experiment: Upregulation of E2F1 gene in mouse MigA9 cells by ingenuity pathway analysis; type: functional, cell-based
[27] = target: Homeobox protein Hox-A9 (Mus musculus) (UniProt P09631); experiment: Inhibition of HOXA9 in mouse MigA9 cells assessed as induction of nuytten-ezh2-targets-up genes by gene set enrichment analysis; type: cell-based
[28] = test system: MigA9; experiment: Upregulation of DICER1 gene in mouse MigA9 cells by ingenuity pathway analysis; type: functional, cell-based
[29] = test system: MigA9; experiment: Downregulation of CD74 gene in mouse MigA9 cells by ingenuity pathway analysis; type: functional, cell-based
[30] = target: Homeobox protein Hox-A9 (Mus musculus) (UniProt P09631); experiment: Inhibition of HOXA9 in mouse MigA9 cells assessed as downregulation of martens-tretinoin-response-dn genes by gene set enrichment analysis; type: cell-based
[31] = test system: MigA9; experiment: Downregulation of FGF7 gene in mouse MigA9 cells by ingenuity pathway analysis; type: functional, cell-based
[32] = test system: MigA9; experiment: Downregulation of KLF2 gene in mouse MigA9 cells by ingenuity pathway analysis; type: functional, cell-based
[33] = test system: MigA9; experiment: Induction of PIM1 gene in mouse MigA9 cells by ingenuity pathway analysis; type: functional, cell-based
[34] = test system: MigA9; experiment: Induction of AKAP13 gene in mouse MigA9 cells by ingenuity pathway analysis; type: functional, cell-based
[35] = test system: MigA9; experiment: Induction of CD47 gene in mouse MigA9 cells by ingenuity pathway analysis; type: functional, cell-based
[36] = test system: MigA9; experiment: Induction of RGS10 gene in mouse MigA9 cells by ingenuity pathway analysis; type: functional, cell-based
[37] = test system: MigA9; experiment: Induction of ITGAM gene in mouse MigA9 cells by ingenuity pathway analysis; type: functional, cell-based
[38] = test system: MigA9; experiment: Upregulation of KLF3 gene in mouse MigA9 cells by ingenuity pathway analysis; type: functional, cell-based
[39] = test system: MigA9; experiment: Induction of IGLL1/IGLL5 gene in mouse MigA9 cells by ingenuity pathway analysis; type: functional, cell-based
[40] = test system: MigA9; experiment: Upregulation of ID1 gene in mouse MigA9 cells by ingenuity pathway analysis; type: functional, cell-based
[41] = test system: MigA9; experiment: Upregulation of Ncoa6 gene in mouse MigA9 cells by ingenuity pathway analysis; type: functional, cell-based
[42] = target: Homeobox protein Hox-A9 (Mus musculus) (UniProt P09631); experiment: Inhibition of HOXA9 in mouse MigA9 cells assessed as induction of gal-leukemic stem cell-dn genes by gene set enrichment analysis; type: cell-based
[43] = test system: MigA9; experiment: Downregulation of CTSG gene in mouse MigA9 cells by ingenuity pathway analysis; type: functional, cell-based
[44] = Induction of spectral signal at wavelength at 1 to 10 uM by circular dichroism method; type: physicochemical; conditions: dose 1-10 µM
[45] = test system: HOXA9 DNA binding site; experiment: Inhibition of HOXA9 (unknown origin) expressed in reticulocyte lysate system binding to 32P-radiolabeled DNA Hoxa9-binding site (strand a-CTGCGATGATTTACGACCGC /strand b-GCGGTCGTAAATCATCGCAG) (unknown origin) assessed as HOXA9/DNA inhibition at 2.5 to 20 uM incubated for 20 mins by electrophoretic mobility shift assay relative to control; type: subcellular; conditions: dose 2.5-20 µM
[46] = test system: HOXA9 DNA binding site [UNDEFINED MUTATION]; experiment: Binding affinity to DNA Hoxa9-binding site-5'-ATTTA mutant (strand a-CTGCGATGAGTCACGACCGC/strand b-GCGGTCGTGACTCATCGCAG) (unknown origin) by UV/visible spectrophotometric method; type: nucleic-acid assay
[47] = test system: HOXA9 DNA binding site [UNDEFINED MUTATION]; experiment: Binding affinity to DNA Hoxa9-binding site-5'-ATTTA/5'ATGA double mutant (strand a-CTGCGTAGCGTCACGACCGC/strand b-GCGGTCGTGACGCTACGCAG) (unknown origin) by UV/visible spectrophotometric method; type: nucleic-acid assay
[48] = Induction of cell death in mouse MigA9 cells harboring mouse Hoxa9 gene assessed as propidium iodide-positive cells at 1 uM incubated for 24 hrs by propidium iodide staining based flow cytometry relative to control; type: functional
[49] = Induction of cell cycle arrest in mouse MigA9 cells expressing mouse Hoxa9 assessed as accumulation at G2/M phase at 1 uM incubated for 48 hrs by EdU/propidium iodide staining based flow cytometry (reference value: 4.55 +/- 0.16%); type: functional
[50] = Induction of cell cycle arrest in mouse MigA9 cells expressing mouse Hoxa9 assessed as accumulation at G0/G1 phase at 0.5 uM incubated for 48 hrs by EdU/propidium iodide staining based flow cytometry (reference value: 48.77 +/- 0.19%); type: functional
[51] = Induction of cell cycle arrest in mouse MigA9 cells expressing mouse Hoxa9 assessed as accumulation at S phase at 0.5 uM incubated for 48 hrs by EdU/propidium iodide staining based flow cytometry (reference value: 46.68 +/- 0.21%); type: functional
[52] = Induction of cell death in mouse MigA9 cells harboring mouse Hoxa9 gene assessed as propidium iodide-positive cells at 0.5 uM incubated for 24 hrs by propidium iodide staining based flow cytometry (reference value: 9.06 +/- 0.53%); type: functional
[53] = Induction of cell death in mouse MigA9 cells harboring mouse Hoxa9 gene assessed as propidium iodide-positive cells at 0.5 uM incubated for 48 hrs by propidium iodide staining based flow cytometry (reference value: 8.75 +/- 0.2%); type: functional
[54] = Induction of cell cycle arrest in mouse MigA9 cells harboring mouse Hoxa9 gene assessed as accumulation at sub-G1 phase at 1 uM incubated for 48 hrs by propidium iodide staining based flow cytometry (reference value: 0.76 +/- 0.1%); type: functional
[55] = Induction of cell cycle arrest in mouse MigA9 cells harboring mouse Hoxa9 gene assessed as accumulation at sub-G1 phase at 0.5 uM incubated for 48 hrs by propidium iodide staining based flow cytometry (reference value: 0.76 +/- 0.1%); type: functional
[56] = Drug localization in nucleus of mouse MigA9 cells at 20 uM incubated for 2 hrs by TO-PRO-3/propidium iodide staining based by fluorescence microscopy; type: ADME, subcellular; conditions: miga9, 2 h
[57] = Induction of cell cycle arrest in mouse MigA9 cells expressing mouse Hoxa9 assessed as accumulation at G0/G1 phase at 1 uM incubated for 48 hrs by EdU/propidium iodide staining based flow cytometry (reference value: 48.77 +/- 0.19%); type: functional
[58] = Induction of cell death in mouse MigA9 cells harboring mouse Hoxa9 gene assessed as propidium iodide-positive cells at 1 uM incubated for 48 hrs by propidium iodide staining based flow cytometry (reference value: 8.75 +/- 0.2%); type: functional
[59] = Induction of cell cycle arrest in mouse MigA9 cells expressing mouse Hoxa9 assessed as accumulation at G2/M phase at 0.5 uM incubated for 48 hrs by EdU/propidium iodide staining based flow cytometry (reference value: 4.55 +/- 0.16%); type: functional
[60] = Induction of cell cycle arrest in mouse MigA9 cells expressing mouse Hoxa9 assessed as accumulation at S phase at 1 uM incubated for 48 hrs by EdU/propidium iodide staining based flow cytometry (reference value: 46.68 +/- 0.21%); type: functional

Compound: N=C(N)c1cccc(-c2ccc(-c3nc4cc(C(=N)N)ccc4[nH]3)cc2)c1
- ΔTm [1]: > 10 °C
- Kd [2]: 0.0055 µM
- ΔTm [3]: 7 °C
- ΔTm [4]: 4 °C
- Activity [5]: 5.17%
- Activity [6]: 100%
- Activity [7]: 1.65%
- Activity [8]: 3.87%
- IC50 [9]: 14.1 µM
- ΔTm [10]: 4 °C

Compound: N=C(N)c1ccc(-c2ccc(-c3nc4ccc(C(=N)N)cc4[nH]3)s2)cc1
- ΔTm [1]: > 10 °C
- Activity [11]: Active
- Stabilty [12]: Stable
- ΔTm [3]: 7 °C
- ΔTm [4]: 4 °C
- Activity [5]: 21.07%
- inhibition [13]: Active
- inhibition [14]: Active
- Activity [15]: Active
- Activity [16]: Active
- Activity [17]: Active
- Activity [18]: Active
- Activity [19]: Active
- Activity [20]: Active
- Activity [21]: Active
- Activity [22]: Active
- Activity [6]: 100%
- Activity [7]: 12%
- Activity [23]: Active
- inhibition [24]: Active
- Drug transport [25]: Active
- Activity [26]: Active
- inhibition [27]: Active
- Activity [8]: 13.5%
- Activity [28]: Active
- Activity [29]: Active
- inhibition [30]: Active
- Activity [31]: Active
- Activity [32]: Active
- Activity [33]: Active
- Activity [34]: Active
- Activity [35]: Active
- Activity [36]: Active
- ΔTm [10]: 4 °C
- Activity [37]: Active
- Activity [38]: Active
- Activity [39]: Active
- Activity [40]: Active
- Activity [41]: Active
- inhibition [42]: Active
- Activity [43]: Active

Compound: N=C(N)c1ccc(-c2ccc(-c3nc4cc(C(=N)N)ccc4o3)o2)cc1
- Stabilty [12]: Stable
- Activity [5]: 8.38%
- Activity [44]: Not Active
- Activity [6]: 100%
- Activity [7]: 0.92%
- Drug transport [25]: Active
- Activity [8]: 8.89%
- inhibition [45]: inactive
- Activity [46]: inactive
- IC50 [9]: > 50 µM
- Activity [47]: inactive

Compound: N=C(Nc1ccc(-c2ccc(-c3ccc(NC(=N)c4ccccn4)cc3)[nH]2)cc1)c1ccccn1
- Activity [48]: 14.43%
- Activity [49]: 6.34%
- Activity [50]: 48.44%
- Activity [51]: 46.06%
- Activity [52]: 5.19%
- Activity [53]: 8.01%
- Activity [54]: 1.04%
- Activity [55]: 1.23%
- Drug transport [56]: Active
- Activity [57]: 50.15%
- Activity [58]: 17.6%
- Activity [59]: 5.5%
- Activity [60]: 43.51%
